Measurements reported in publication PMC11811597, “Phenomics‐Based Discovery of Novel Orthosteric Choline Kinase Inhibitors” (Angewandte Chemie (International Ed. in English), 2025).

Biological target: T1, EHMT2 (G9a) (Homo sapiens, UniProt Q96KQ7)
T1 sequence (Q96KQ7 1-1210): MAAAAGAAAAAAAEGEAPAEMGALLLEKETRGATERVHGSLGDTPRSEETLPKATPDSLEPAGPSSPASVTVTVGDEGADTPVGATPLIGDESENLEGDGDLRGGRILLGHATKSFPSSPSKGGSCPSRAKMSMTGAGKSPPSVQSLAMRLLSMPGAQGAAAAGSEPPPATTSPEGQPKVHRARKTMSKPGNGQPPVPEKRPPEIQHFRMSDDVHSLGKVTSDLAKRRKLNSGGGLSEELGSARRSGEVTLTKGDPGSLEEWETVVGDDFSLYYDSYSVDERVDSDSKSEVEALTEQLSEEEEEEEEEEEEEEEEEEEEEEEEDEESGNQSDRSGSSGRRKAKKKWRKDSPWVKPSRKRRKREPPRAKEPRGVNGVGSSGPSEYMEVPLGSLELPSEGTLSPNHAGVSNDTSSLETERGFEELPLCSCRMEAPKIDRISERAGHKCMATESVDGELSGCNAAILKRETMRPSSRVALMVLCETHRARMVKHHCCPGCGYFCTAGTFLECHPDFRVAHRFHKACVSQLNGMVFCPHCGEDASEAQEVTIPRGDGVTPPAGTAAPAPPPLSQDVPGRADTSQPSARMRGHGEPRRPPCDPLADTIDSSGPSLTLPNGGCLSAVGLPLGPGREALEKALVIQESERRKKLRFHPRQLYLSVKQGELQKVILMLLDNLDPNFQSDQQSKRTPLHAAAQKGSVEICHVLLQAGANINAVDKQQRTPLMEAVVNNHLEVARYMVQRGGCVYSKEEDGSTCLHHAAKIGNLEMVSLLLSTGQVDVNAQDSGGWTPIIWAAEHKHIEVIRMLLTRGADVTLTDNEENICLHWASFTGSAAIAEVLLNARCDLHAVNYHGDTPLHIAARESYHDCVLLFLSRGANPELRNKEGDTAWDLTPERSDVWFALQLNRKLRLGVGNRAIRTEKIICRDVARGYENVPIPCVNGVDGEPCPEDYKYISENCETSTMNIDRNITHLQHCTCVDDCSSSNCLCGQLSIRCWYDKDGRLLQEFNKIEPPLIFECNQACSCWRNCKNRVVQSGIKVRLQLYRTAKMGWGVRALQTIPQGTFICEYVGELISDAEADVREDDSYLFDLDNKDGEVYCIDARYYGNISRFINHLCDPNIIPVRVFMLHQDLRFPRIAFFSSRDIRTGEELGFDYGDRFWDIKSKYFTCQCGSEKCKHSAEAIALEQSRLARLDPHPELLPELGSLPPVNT
Assay: Competitive affinity-based chemoproteomics (UNC0965 matrix), PBMC cell extract
Assay type: binding
Design: endogenous in cells
Settings: 20 µM competitor
Method: described.[2] Lysates were precleared with bead slurry (100 μL) for 30 min at 4 °C and then treated with UNC0638 or UNC0737 (20 μM) or DMSO control for 30 min at 4 °C followed by incubation with affinity matrix for 2 h at 4 °C. Affinity matrices were washed with buffer A (5 mL) and proteins eluted with 100 μL of 2x Laemmli sample buffer, 100 mM DTT, in PBS and heating for 10 min at 90 °C.
Eluents (70 µL) were diluted in 0.1 M Tris (pH 7.8) to 200 µL, reduced with 5 mM DTT for 30 min at RT, and alkylated with 20 mM iodoacetamide for 30 min at RT in the dark. Proteins were precipitated by sequential addition of MeOH (600 µL), CHCl3 (150 µL) and H2O (450 µL), pelleted (17,000 × g, 5 min), washed with further MeOH (2 × 600 µL), and re-pelleted. Air dried pellets were resuspended in 50 μL 6 M urea (pH 7.8) by vortexing and then diluted with 250 μL H2O before adding 1 µg trypsin for overnight incubation at 37 °C. The digests were acidified with FA (1% v/v final concentration), desalted using SOLA HRP SPE Cartridges (Thermo Fisher), eluted with 69% v/v MeCN, 0.1% v/v FA in H2O (600 μL) and dried in vacuo. Dried peptides were stored at -20 °C before resuspension in 2% v/v MeCN, 0.1% v/v FA in H2O (20 μL) for LC-MS/MS analysis.
LC-MS/MS Data Acquisition
Digested samples were analysed by nano-UPLC–MS/MS using a Dionex Ultimate 3000 nano UPLC fitted with an EASY spray column (75 μm × 500 mm, 2 μm particle size, Thermo Scientific), coupled to an Orbitrap Q Exactive instrument. […]
Raw data was processed using MaxQuant[3] version 2.0.1.0 and the reference complete human proteome FASTA file (UniProt, downloaded 05.08.21). Label Free Quantification (LFQ) and Match Between Runs were selected; Cysteine carbamidomethylation was selected as a fixed modification, and methionine oxidation and asparagine deamidation as variable modifications. Default settings for identification and quantification were used. […]
mode selected for both identification and quantification of proteins (razor peptides are uniquely assigned to protein groups and not to individual proteins).

Question: For COc1cc2c(NC3CCN(C(C)C)CC3)nc(C3CCCCC3)nc2cc1OCCCN1CCCC1 [UNC0638], which “EHMT2 (G9a) binding to the matrix” value is on record?
Answer: reduced binding to the matrix
